What was measured:
Format in all cases: cell-based
[1] = target: T1, human RXRα ligand binding domain (Gal4 hybrid receptor) (Homo sapiens, UniProt P19793); experiment: Gal4 hybrid reporter gene assay RXRα; conditions: HEK293T cells, n ≥ 4, read-out: RXRα EC50 ± SEM
T1 construct: expressed in transfected cells; host or cells: HEK293T
T1 sequence (P19793 227-458 limits assumed): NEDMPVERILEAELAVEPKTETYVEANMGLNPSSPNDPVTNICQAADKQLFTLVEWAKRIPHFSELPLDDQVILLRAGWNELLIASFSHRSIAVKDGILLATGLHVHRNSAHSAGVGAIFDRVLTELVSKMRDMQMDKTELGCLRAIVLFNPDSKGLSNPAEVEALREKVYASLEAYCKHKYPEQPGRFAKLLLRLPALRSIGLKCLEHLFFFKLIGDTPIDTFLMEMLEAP
Method: The 20 top-ranked synthetic compounds were selected and tested in vitro for their modulatory activity on RXR (Supplementary Table 1). Compounds were tested in specific hybrid reporter gene assays for RXRα, RXRβ and RXRγ modulation[39]–[41]. These assays rely on a constitutively expressed hybrid receptor composed of the respective human RXR ligand binding domain and the DNA binding domain of the Gal4 receptor from yeast. A Gal4 responsive firefly luciferase was used as reporter gene and constitutively expressed renilla luciferase served as internal control for transfection efficiency and test compound toxicity. All selected compounds were tested at 50 µM concentration on RXRα and for active compounds (Supplementary Fig. 1), dose response curves were recorded on all three RXR subtypes.
(§1) The Gal4 hybrid reporter gene assays were conducted as reported previously[39]–[41]. pFA-CMV-based constructs comprising the ligand binding domain of the human nuclear receptor in question were used as expression plasmids for the chimera receptors. pFR-Luc (Stratagene) served as reporter plasmid and pRL-SV40 (Promega) for normalization of transfection efficiency and cell growth. The assays were conducted in 96-well format in HEK293T cells that were cultured as described previously[39]–[41]. Transient transfection was carried out using Lipofectamine LTX reagent (Invitrogen) according to the manufacturer’s protocol. After transfection and incubation with test compounds (12–14 h), cells were assayed for luciferase activity using Dual-Glo™ Luciferase Assay System (Promega) according to the manufacturer’s protocol. Luminescence was measured with an Infinite M200 luminometer (Tecan Deutschland GmbH). All hybrid assays were validated with reference agonists (PPARα: GW7647; PPARγ: pioglitazone; PPARδ: L165,041; LXRα/β: T0901317; FXR: GW4064; RXRs: bexarotene; RARs: tretinoin; VDR: calcitriol; CAR: CITCO; PXR: SR12813) which yielded EC50 values in agreement with literature. The assays were conducted in duplicates with at least two independent repeats and for active compounds repeated without hybrid receptor coding DNA for every test compound at the highest tested concentration to exclude unspecific effects.
Supplementary Figure 2. Dose-response curves for RXRα activation. Compounds were tested in specific hybrid reporter gene assays for RXRα, RXRβ and RXRγ modulation.^1–3 These assays rely on a constitutively expressed hybrid receptor composed of the respective human RXR ligand binding domain and the DNA binding domain of the Gal4 receptor from yeast. A Gal4 responsive firefly luciferase was used as reporter gene and constitutively expressed renilla luciferase served as internal control for transfection efficiency and test compound toxicity. […]

[2] = target: T2, RARγ (Homo sapiens, UniProt P13631); experiment: Gal4 hybrid reporter gene assay RARγ (selectivity profiling)
T2 construct: expressed in transfected cells; host or cells: HEK293T
T2 sequence (P13631 185-419 limits assumed): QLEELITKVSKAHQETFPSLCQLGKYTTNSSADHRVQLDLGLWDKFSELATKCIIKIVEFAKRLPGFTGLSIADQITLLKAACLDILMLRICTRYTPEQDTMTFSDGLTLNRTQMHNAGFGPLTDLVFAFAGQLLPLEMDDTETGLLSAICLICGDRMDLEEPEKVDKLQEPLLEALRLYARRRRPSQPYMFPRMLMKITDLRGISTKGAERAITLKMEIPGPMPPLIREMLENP
Method: (§2) Moreover, 7 was characterized for its ability to modulate RXR target gene expression under more physiological conditions. Hepatoma cells (HepG2) were incubated with 7 (30 µM) or reference RXR agonist bexarotene (9, 1 µM) for eight hours and mRNA expression of RXR regulated genes ATP-binding cassette transporter A1 (ABCA1), angiopoietin like protein 4 (ANGPTL4) and apolipoprotein E (ApoE) was analysed by quantitative real-time PCR.
as §1, with “All hybrid assays were validated with reference agonists (PPARα: GW7647; PPARγ: pioglitazone; PPARδ: L165,041; LXRα/β: T0901317; FXR: GW4064; RXRs: bexarotene; RARs: tretinoin; VDR: calcitriol; CAR: CITCO; PXR: SR12813) which yielded EC50 values in agreement with literature. The assays were conducted in duplicates with at least two independent repeats and for active compounds repeated without hybrid receptor coding DNA for every test compound at the highest tested concentration to exclude unspecific effects.” left out

[3] = target: T3, farnesoid X receptor [FXR] (Homo sapiens, UniProt Q96RI1); experiment: Gal4 hybrid reporter gene assay FXR (selectivity profiling)
T3 construct: expressed in transfected cells; host or cells: HEK293T
T3 sequence (Q96RI1 262-486 limits assumed): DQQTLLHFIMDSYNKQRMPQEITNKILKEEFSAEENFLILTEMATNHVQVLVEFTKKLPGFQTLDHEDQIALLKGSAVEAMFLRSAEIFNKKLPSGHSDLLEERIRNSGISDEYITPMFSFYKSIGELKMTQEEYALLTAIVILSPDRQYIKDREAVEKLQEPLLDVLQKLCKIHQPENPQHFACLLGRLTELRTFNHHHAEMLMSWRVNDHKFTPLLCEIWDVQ
Method: as §2
as §1, with “All hybrid assays were validated with reference agonists (PPARα: GW7647; PPARγ: pioglitazone; PPARδ: L165,041; LXRα/β: T0901317; FXR: GW4064; RXRs: bexarotene; RARs: tretinoin; VDR: calcitriol; CAR: CITCO; PXR: SR12813) which yielded EC50 values in agreement with literature. The assays were conducted in duplicates with at least two independent repeats and for active compounds repeated without hybrid receptor coding DNA for every test compound at the highest tested concentration to exclude unspecific effects.” left out

[4] = system: apolipoprotein E (ApoE) mRNA in HepG2 cells; experiment: Target gene quantification (quantitative real-time PCR), ApoE; conditions: HepG2, 7 at 30 µM versus bexarotene at 1 µM, 8 h, qRT-PCR
Method: as §2
HepG2 cells were incubated with test compound 7 (30 µM) or bexarotene (1 µM) as positive control each dissolved in 0.1% DMSO or 0.1% DMSO alone as untreated control for 8 h, harvested, washed with cold phosphate buffered saline (PBS) and then directly used for RNA extraction with the Total RNA Mini Kit (R6834-02, Omega Bio-Tek, Inc., Norcross, GA, USA). 2 µg RNA were reverse-transcribed into cDNA using the High-Capacity cDNA Reverse Transcription Kit (4368814, Thermo Fischer Scientific, Inc.). RXR target gene expression was evaluated by quantitative real time PCR analysis with a StepOnePlus™ System (Life Technologies, Carlsbad, CA, USA) using PowerSYBRGreen (Life Technologies; 12.5 µl per well) and the primers reported in Supplementary Table 4[58]. […] The expression was quantified by the comparative ∆∆Ct method. […] Results are expressed as mean ± standard error of the mean (SEM) relative mRNA expression compared to DMSO (0.1%) control which was set as 1.

[5] = target: T4, PPARδ (Homo sapiens, UniProt Q03181); experiment: Gal4 hybrid reporter gene assay PPARδ (selectivity profiling)
T4 construct: expressed in transfected cells; host or cells: HEK293T
T4 sequence (Q03181 211-439 limits assumed): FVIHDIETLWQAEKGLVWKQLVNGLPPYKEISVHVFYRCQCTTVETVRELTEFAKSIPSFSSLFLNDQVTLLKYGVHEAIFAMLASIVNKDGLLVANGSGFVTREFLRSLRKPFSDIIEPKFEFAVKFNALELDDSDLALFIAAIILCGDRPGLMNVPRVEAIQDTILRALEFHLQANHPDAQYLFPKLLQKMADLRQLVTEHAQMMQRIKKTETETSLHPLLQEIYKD
Method: as §2
as §1, with “All hybrid assays were validated with reference agonists (PPARα: GW7647; PPARγ: pioglitazone; PPARδ: L165,041; LXRα/β: T0901317; FXR: GW4064; RXRs: bexarotene; RARs: tretinoin; VDR: calcitriol; CAR: CITCO; PXR: SR12813) which yielded EC50 values in agreement with literature. The assays were conducted in duplicates with at least two independent repeats and for active compounds repeated without hybrid receptor coding DNA for every test compound at the highest tested concentration to exclude unspecific effects.” left out

SMILES: CC(C)(C)c1cc(/C=N/NC(=O)c2ccc(N)cc2)cc(C(C)(C)C)c1 [Compound 7]
- EC50 [1]: 32.1 ± 0.9 µM
- activity on RARγ [2]: no activity
- activity on FXR [3]: no activity
- induction of ApoE mRNA expression [4]: comparable efficacy as RXR agonist bexarotene
- activity on PPARδ [5]: no activity

From publication PMC6220272, “Scaffold-Hopping from Synthetic Drugs by Holistic Molecular Representation” (Scientific Reports, 2018)
